One data set concerns prothrombin time (INR). Conditions: area under INR-time profile 0-[…]; 5 mg warfarin; n=12.
Data set [1] in a line: Safety evaluations (adverse events, clinical and laboratory examinations).
Method: The safety assessments were conducted on account of clinical examinations, such as evaluation of general subject appearance, vital signs and routine hematology and biochemistry assays[35], together with adverse events evaluation (AEs), conducted at screening, pretreatment, post-treatment (day 7) and end of trial (day 16). […] AEs were defined as mild, moderate or severe[37]. Determination of causal relationship between AEs and study drugs followed the criterions announced by the World Health Organization[27].
The conditions of data set [2]: n=12; for Cmax / MRT0-∞: mean (SD); for Tmax: median (range).
Method: The volunteers were hospitalized on day-1 (the day before the study), 10 hours of fasting was required before administration[27].
The chromatographic separation was carried out on an LC system (Shimadzu LC-20AD, Tokyo, Japan) using water and acetonitrile, and AB QTRAP 4000 system (AB Sciex, Foster City, CA, USA) in positive electrospray ion mode was hired for quantification[29]–[31]. […] Liquid-liquid extraction with 3 mL dichloromethane: diethyl ether: (2:3, v/v) was employed for 200 μL human plasma.
(§1) The measurement outcomes contained area under the profile (AUC0-t), the terminal half-life (t1/2), maximum plasma concentration observed (Cmax), time of maximum concentration (Tmax). AUC from 0 to infinity (AUC0-∞). Parameters of pharmacodynamic were estimated from the INR data on each period. PT (INR) was measured with the use of prothrombin complex assay (STA-R, SPA 50 Reagent, Diagnostica stago)[34]. Maximum INR (INRmax) and baseline INR (INRbaseline) were determined by PTtest divide PTnormal.
(§2) Log-transformation of pharmacodynamic parameters INRmax and INR(AUC) were applied.
The next data set has as its system COX-2. Particulars: cited from earlier work.
The subject of another data set is COX-1. Conditions: read-out: 50% inhibitory concentration (IC50) of COX-1; cited from earlier work.
A further data set deals with plasma protein. Particulars: cited from earlier work.
Details of data set [3]: method as in earlier work. Particulars: cited from earlier work.
Another data set relates to 3A4. Particulars: hepatic isoenzyme; cited from earlier work.
For another data set, the system named is CYP2C9. Conditions: hepatic isoenzyme; cited from earlier work.
The next data set concerns 2D6. Conditions: hepatic isoenzyme; cited from earlier work.
The subject of data set [4] is vitamin K-dependent coagulation factors. Particulars: cited from earlier work.
[5] abbreviates: warfarin 5 mg with steady-state imrecoxib.

Read-outs that look alike come from different tables or passages of the source.

Method for prothrombin time (INR): Current study is phase I clinical trial, which was designed as open-labeled and fixed-sequence, and all the information/data were collected from a single center. […] The volunteers were hospitalized on day-1 (the day before the study), 10 hours of fasting was required before administration[27]. Subjects should avoid any activities involved in risks of haemorrhage[9].
as §1, §2

Turning to `CC(=O)CC(c1ccccc1)c1c(O)c2ccccc2oc1=O` (stereo not shown) [Warfarin], the “INR (AUC)” value with prothrombin time (INR) was found to be 143.47. Further, the safety and tolerance entry in data set [1] (healthy volunteers, across the trial) was “safey and good tolerance”. In addition, the “transient elevated direct bilirubin” value in [1] (one subject, period 1, day 7, upper limit of normal 6.8 μmol/L, grade 1 AE, considered unrelated to study drugs) is 9.6 µmol/L.

`CC(=O)C[C@H](c1ccccc1)c1c(O)c2ccccc2oc1=O` [R-warfarin]: in data set [2] (warfarin 5 mg alone), the Cmax was 285.25 (39.66) μg/L, the “MRT0-∞” value is 88.41 (19.96) hr and the Tmax is recorded as 1.0 (0.5–3.0) hr. For the same compound, in [2] (setting [5]), the Cmax was 300.75 (36.61) μg/L, the “MRT0-∞” value is given as 83.44 (13.39) hr and the Tmax is recorded as 0.8 (0.5–2.0) hr.

On to `CCCN1CC(c2ccc(S(C)(=O)=O)cc2)=C(c2ccc(C)cc2)C1=O` [Imrecoxib, 4-(4-methylsulfonyl-phenyl)-1-propyl-3-(p-tolyl)-1H-pyrrol-2(5H)-one], for which, in the data set with COX-2 (between that of meloxicam and celecoxib), the “selective index (IC50, COX-1/COX2)” value is reported as 6.39. Moreover, the IC50 in the data set on COX-2 (read-out: 50% inhibitory concentration (IC50) of COX-2) is 18 ± 4 nM; in the data set with COX-1 it was 115 ± 28 nM. Also, in the data set with plasma protein, the “protein bound in plasma” value is on record as 96%. The accumulation in plasma entry in data set [3] (200 mg bid for 11 consecutive days) is listed as “No accumulated effects”. The t1/2 in data set [3] is 20 h. The Tmax in [3] (following oral consumption) is 2 h. Also, the “single-dose pharmacokinetics dose linearity” value in data set [3] (over the 30 to 200 mg dose range) is “linear”. The “rate of metabolism by CYP3A4” value with 3A4 is listed as 16.4%. Also, the “rate of metabolism by CYP2C9” value in the data set with CYP2C9 is recorded as 62.5%. Moreover, the adverse event result in data set [1] (one subject, period 2, Day 8 after first dose (200 mg), about 1.5 hours, resolved without treatment, possibly related) is recorded as “mild abdominal/upper abdominal discomfort”. For the same compound, the “rate of metabolism by CYP2D6” value with 2D6 was 21.1%.

Consider `CC(=O)C[C@@H](c1ccccc1)c1c(O)c2ccccc2oc1=O` [S-warfarin], for which, in [2] (warfarin 5 mg alone), the Cmax was 294.92 (50.35) μg/L, the “MRT0-∞” value is given as 66.44 (15.76) hr and the Tmax is 1.0 (0.5–3.0) hr. In addition, in data set [2] (setting [5]), the Cmax was 300.42 (34.01) μg/L, the “MRT0-∞” value was 63.35 (12.78) hr and the Tmax is on record as 0.8 (0.5–2.0) hr. Besides, the “share of anticoagulant activity of warfarin” value in [4] is reported as 85%.

These data come from publication PMC6823368 (Scientific Reports, 2019).
